The half-life is the time needed for the level to fall by half in the phase considered. By AUC is commonly meant the area under the concentration-time curve, a measure of exposure. A word on the CL/F: it is the apparent clearance, not corrected for the fraction that reaches the circulation. The term Cmax denotes the highest concentration seen after dosing. The MRT is a mean duration of stay, worked out from the concentration-time curve. Broadly, the Vd/F is the apparent distribution volume after extravascular dosing.

SMILES strings stand for the structures.

Data set [1] can be described thus: Plasma stability in monkey plasma (LC-MS/MS). The format is in vitro ADME. The following applies: monkey, plasma. Here is the method:
The stability of the compound of Example 6 and the control example CC-92480 after incubation in cryopreserved monkey plasma at 37° C. for 0 min, 15 min, 30 min, 60 min, 120 min, 180 min and 240 min was determined quantitatively by LC-MS/MS.
(§1) Compound of Example 6 and control example CC-92480.
Monkey plasma was purchased from Shanghai Medicilon Inc.
A certain amount of the compound of Example 6 was weighed and prepared with DMSO to obtain a 30 mM stock solution. A certain volume of the stock solution was diluted into a solution I at a concentration of 1600 μM with DMSO; and a certain volume of the solution I at 1600 μM was diluted with 50% methanol to obtain a working solution II at a concentration of 16 μM. A 30 mM stock solution, a 1600 μM solution I′, and a 16 μM working solution II′ of CC-92480 were prepared as described above.
5 μL of the working solutions at 16 μM of the compound of Example 6 and the control example CC-92480 were each added to 75 μL of plasma to make the final concentration of the compounds of 1 μM. The samples were incubated under a 37° C. water bath for 0 min, 15 min, 30 min, 60 min, 90 min, 120 min, and 180 min. […] The supernatant was analyzed by LC-MS with a sample injection volume of 2 μL.

The subject of the next data set is NCI-H929 xenograft tumor. As to the kind of experiment: Pharmacodynamic test: NCI-H929 xenograft tumor in CB-17 SCID mice. In kind it is in vivo. On the procedure: This experiment was performed to evaluate the inhibition effect of the compound of Example 6 and the control example CC-92480 on the growth of human multiple myeloma cell NCI-H929 xenograft tumor in CB-17 SCID mice.
Compound of Example 6; control example CC-92480 (see compound 2 of WO2019014100A1, synthesized according to the method disclosed therein)
Solutions of the compound of Example 6 and the control example CC-92480 were prepared with 5% DMSO+20% PEG400+70% (10% TPGS)+5% (1% HPMC K100LV).
Thirty CB-17 SCID female mice, purchased from Beijing Vital River Laboratory Animal Technology Co., Ltd. (certificate No. 20170011006049, SCXK (Shanghai) 2017-0011), weighing about 19 g at the time of purchase, were bred at 5 mice/cage (in 12/12 hour light/dark cycle, at a constant temperature of 23±1° C. and humidity of 50%-60%) and had free access to food and water.
After adaptive feeding, the CB-17 SCID mice were grouped as follows:
NCI-H929 cells in a logarithmic growth phase were inoculated subcutaneously into the right flank of 30 female CB-17 SCID mice at 5×10^6 cells/mouse/100 μL (containing 50 μL of Matrigel). After 10 days, when the tumor volume of the tumor-bearing mice reached about 200 mm^3, the mice were randomly divided into 3 groups according to the tumor volume and body weight: vehicle control group, CC-92480-1 mpk, compound of Example 6-1 mpk, with 7 mice in each group. The day of grouping was set as Day 0 (D0), and intragastric administration was performed once a day for 11 days (Table 2). For the tumor-bearing mice, the tumor volume was measured with a vernier caliper and the body weight was measured with a balance twice a week, and the data were recorded.
All data were plotted and statistically analyzed using Excel and GraphPad Prism 5 software.
The tumor volume (V) was calculated as follows: V=½×a×b^2, where a and b represent length and width, respectively.
The relative tumor proliferation rate T/C (%)=(T−T0)/(C−C0)×100(%), where T and C are the tumor volume of animals at the end of the experiment in the treatment group and control group, respectively; T0 and C0 are the tumor volume of animals at the beginning of the experiment in the treatment group and control group, respectively.
Tumor growth inhibition TGI (%)=1−T/C (%), and when TGI (%) exceeds 100%, no specific value will be shown, and it is expressed only by >100%.
Tumor regression (%)=[(T0−T)/T0]×100(%).

Data set [2] is described as follows: Pharmacokinetic evaluation in mice after intragastric administration (LC/MS/MS). The following applies: female, mouse, in vivo, po, 2 mg/kg. The format is in vivo. Here is the method: The drug concentration in the plasma of the test animals (mice) at different time points after intragastric administration of the compound of Example 6 and the control example CC-92480 was determined by an LC/MS/MS method. The pharmacokinetic behavior of the compound of the present disclosure in mice was studied and its pharmacokinetic profile was evaluated.
as §1
Eighteen mice, female, purchased from Beijing Vital River Laboratory Animal Technology Co., Ltd., with animal production license number of SCXK (Shanghai) 2017-0005.
A certain amount of compound of Example 6 was weighed, dissolved by adding 5% by volume of DMSO and 5% Tween 80 (Shanghai Titan Scientific Co., Ltd.), and then prepared into a 0.1 mg/mL clear solution by adding 90% normal saline.
A certain amount of the control example CC-92480 was weighed, dissolved by adding 5% by volume of DMSO and 5% Tween 80 (Shanghai Titan Scientific Co., Ltd.), and then prepared into a 0.1 mg/mL clear solution by adding 90% normal saline.
Nine mice were intragastrically administered with the compound of Example 6 at a dose of 2 mg/kg and at a volume of 0.2 mL/10 g.
Nine mice were intragastrically administered with the control example CC-92480 at a dose of 2 mg/kg and at a volume of 0.2 mL/10 g.
Mice were intragastrically administered with the compound of Example 6 and the control example CC-92480, and 0.2 mL of blood was collected before the administration and 0.25 h, 0.5 h, 1.0 h, 2.0 h, 4.0 h, 6.0 h, 8.0 h, 11.0 h and 24.0 h after the administration (3 animals at each time point), placed in EDTA-K2 anticoagulation tubes, and centrifuged at 10,000 rpm for 1 min(4° C.). Plasma was separated within 1 h, and stored at −20° C. for testing. The process from blood collection to centrifugation was performed under an ice bath.
The content of the test compounds at different concentrations in mouse plasma after the administration was determined: 25 μL of mouse plasma at each time point after the administration was mixed with 50 μL (100 ng/mL) of internal standard solution camptothecin (National Institutes for Drug Control) and 175 μL of acetonitrile. The mixture was vortexed for 5 min and centrifuged for 10 min (3700 rpm/min), and 1 μL of the supernatant of the plasma sample was taken for LC/MS/MS assay (API4000 triple quadrupole tandem mass spectrometer, Applied Biosystems, USA; Shimadzu, LC-30AD ultra high performance liquid chromatography system, Shimadzu, Japan).

As to `N#Cc1ccc(N2CCN(Cc3ccc(COc4cccc5c4CN([C@H]4CCC(=O)NC4=O)C5=O)cc3)CC2)c(F)c1` [CC-92480, reference compound], the half-life at 1 µM in data set [1] amounted to 3.32 h. In addition, the “Mean tumor volume D0” value in the data set on NCI-H929 xenograft tumor (1 mg/kg qd, baseline at day of grouping (D0), n=7) is recorded as 157.2 mm^3. In addition, the “Number of remaining animals/group” value in the data set on NCI-H929 xenograft tumor (1 mg/kg qd/11d po) was 7/7. In the data set with NCI-H929 xenograft tumor (1 mg/kg qd/11d po (i.g.), D11), the “% tumor regression D11” value worked out at 34%. Moreover, the “Mean tumor volume D11” value in the data set with NCI-H929 xenograft tumor (1 mg/kg qd/11d po (i.g.), D11, n=7) is recorded as 103.6 mm^3. Besides, in data set [2], the area under the curve (AUC) is 1940 ng·h/mL, the CL/F stood at 17.2 mL/min/kg, the peak concentration (Cmax) was found to be 692 ng/mL and the mean residence time (MRT) came to 2.3 h. For the same compound, in data set [2], the Vd/F was 1.96 L/kg and the half-life is 1.3 h.

(Values after patent US20230257366A1, “SULFUR-CONTAINING ISOINDOLINE DERIVATIVE, AND PREPARATION METHOD THEREFOR AND MEDICAL USE THEREOF” (JIANGSU HENGRUI PHARMACEUTICALS CO., LTD., priority 2020, published 2023).)
